Laboratory results reported in US20240158446A1, “CYCLIC COMPOUND HAVING SELECTIVE INHIBITORY ACTION ON KRAS OVER HRAS AND NRAS” (CHUGAI SEIYAKU KABUSHIKI KAISHA, priority 2021, published 2024).
Where two headings read alike, the source gives them in different places. Where a SMILES comes first, the peptide text is derived from it. Bridges are numbered along the chain shown (N, C = ends). [ ]: non-standard residue; d: D form. The star is where a group is joined. hPhe(3,5-F2-4-CF3) = N[C@@H](CCc1cc(F)c(C(F)(F)F)c(F)c1)C(=O)O; NPrPhe(4-CF3) = CCCN[C@@H](Cc1ccc(C(F)(F)F)cc1)C(=O)O; NMeGly(cPent) = CN[C@H](C(=O)O)C1CCCC1; αMeF = C[C@](N)(Cc1ccccc1)C(=O)O; NMeD = CN[C@@H](CC(=O)O)C(=O)O; NMeL = CN[C@@H](CC(C)C)C(=O)O; Morpholide = C1CN(*)CCO1; Aze = O=C(O)[C@@H]1CCN1; Sar = CNCC(=O)O

Columns and labels:
[1] = biological target: GDP-bound HRAS wild-type protein (Homo sapiens, UniProt P01112); test: Binding to HRAS by surface plasmon resonance (SPR), Single Cycle Kinetics; conditions: SPR
Chain of GDP-bound HRAS wild-type protein (P01112 whole entry): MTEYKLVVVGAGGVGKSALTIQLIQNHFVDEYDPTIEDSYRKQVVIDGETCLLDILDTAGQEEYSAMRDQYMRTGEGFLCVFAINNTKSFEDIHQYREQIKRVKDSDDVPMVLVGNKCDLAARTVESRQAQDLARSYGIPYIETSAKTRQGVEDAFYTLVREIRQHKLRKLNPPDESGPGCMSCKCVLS

[2] = test system: human lung cancer strain NCI-H441;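 note: cell proliferation inhibition after four days measured by CellTiter-Glo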
[3] = biological target: GDP-bound NRAS wild-type protein (Homo sapiens, UniProt P01111); test: Binding to NRAS by surface plasmon resonance (SPR), Single Cycle Kinetics; conditions: SPR
Chain of GDP-bound NRAS wild-type protein (P01111 whole entry): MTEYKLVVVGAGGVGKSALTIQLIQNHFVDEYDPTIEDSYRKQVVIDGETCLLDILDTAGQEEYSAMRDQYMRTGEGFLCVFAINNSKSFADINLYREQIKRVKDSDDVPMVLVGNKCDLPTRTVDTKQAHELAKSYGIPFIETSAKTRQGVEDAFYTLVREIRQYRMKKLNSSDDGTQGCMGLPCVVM

[4] = GDP-bound HRAS wild-type protein vs GDP-bound KRAS wild-type protein
[5] = GDP-bound NRAS wild-type protein vs GDP-bound KRAS wild-type protein

| IC50 ([2]; read-out: NCI-H441 cell proliferation inhibitory activity, 50% proliferation inhibitory concentration (IC50 value), NCI-H441, four days, CellTiter-Glo) [nM] | IC50 [2] [nM] | Compound | HRAS/KRAS (ratio of KD value for HRAS to KD value for KRAS) [1, 4] | ratio of the KD value with respect to GDP-bound HRAS wild-type protein to the KD value with respect to KRAS ([1]; KD(HRAS)/KD(KRAS)) | NRAS/KRAS (ratio of KD value for NRAS to KD value for KRAS) [3, 5] | ratio of the KD value with respect to GDP-bound NRAS wild-type protein to the KD value with respect to KRAS ([3]; KD(NRAS)/KD(KRAS)) | HRAS/KRAS (ratio of KD value with respect to HRAS to KD value with respect to KRAS) [1, 4] | NRAS/KRAS (ratio of KD value with respect to NRAS to KD value with respect to KRAS) [3, 5] |
| --- | --- | --- | --- | --- | --- | --- | --- | --- |
| 2.5 |  | CCCO[C@@H]1C[C@H]2C(=O)NC3(CC(C)(C)C3)C(=O)N(C)[C@@H](C3CCCC3)C(=O)N(C)[C@H](C(=O)N(C)CC)CC(=O)N(C)[C@H]3CCCc4ccc(cc4)C[C@@H](C(=O)N(C)CC(=O)N[C@@H](CCc4ccc(C(F)(F)F)c(OC)c4)C(=O)N2C1)N1CC/C=C\C[C@@H](C1=O)N(C)C(=O)CN(C)C(=O)[C@H]([C@@H](C)CC)NC3=O [PP3083] | A (a compound having 10 or more and less than 20 is denoted as A) | A (a compound having 10 or more and less than 20 is denoted as A) | A (a compound having 10 or more and less than 20 is denoted as A) | A (a compound having 10 or more and less than 20 is denoted as A) |  |  |
|  | 13.6 | CCC[C@H]1C(=O)N[C@@H]([C@@H](C)CC)C(=O)N(C)CC(=O)N(C)[C@H]2C/C=C\CCN(C2=O)[C@@H](Cc2ccc(C)cc2)C(=O)N(C)CC(=O)N[C@@H](CCc2cc(F)c(C(F)(F)F)c(F)c2)C(=O)N2C[C@H](OCC)C[C@H]2C(=O)NC2(CC(C)(C)C2)C(=O)N(C)[C@@H](C(CC)CC)C(=O)N(C)[C@H](C(=O)N(C)C)CC(=O)N1C [PP2064] | A (a compound having 10 or more and less than 20 is denoted as A) |  | A (a compound having 10 or more and less than 20 is denoted as A) |  |  |  |
|  | 438 | CC[C@H](C)[C@@H]1NC(=O)[C@H](CC(C)C)N(C)C(=O)C[C@@H](C(=O)N2CCOCC2)N(CC)C(=O)[C@H](C2CCCC2)N(C)C(=O)C2(CCC2)NC(=O)[C@@H]2CC(F)(F)CN2C(=O)[C@H](CCc2cc(F)c(C(F)(F)F)c(F)c2)NC(=O)CN(C)C(=O)[C@H](Cc2ccc(C(F)(F)F)cc2)N2CCCCC[C@@H](C2=O)N(C)C(=O)CN(C)C1=O [PP0954] | A (a compound having 10 or more and less than 20 is denoted as A) |  | A (a compound having 10 or more and less than 20 is denoted as A) |  |  |  |
|  | 100 | CC[C@H](C)[C@@H]1NC(=O)[C@H](Cc2cccc(Cl)c2)N(C)C(=O)C[C@@H](C(=O)N2CCOCC2)N(C)C(=O)[C@H](C2CCCC2)N(C)C(=O)C2(CCCC2)NC(=O)[C@@H]2CCCN2C(=O)[C@H](CCc2ccc(C(F)(F)F)c(Cl)c2)NC(=O)CN(C)C(=O)[C@H](Cc2ccc(F)cc2)N2CCCCC[C@@H](C2=O)N(C)C(=O)CN(C)C1=O [PP0963] | B (a compound having 3 or more and less than 10 is denoted as B) |  | B (a compound having 3 or more and less than 10 is denoted as B) |  |  |  |
|  | 546 | CCCN1C(=O)CN(C)C(=O)[C@@H]2CCN2C(=O)[C@H]([C@@H](C)CC)NC(=O)[C@H](CC(C)C)N(C)C(=O)C[C@@H](C(=O)N2CCOCC2)N(C)C(=O)[C@H](C2CCCC2)N(C)C(=O)[C@](C)(Cc2ccccc2)NC(=O)[C@@H]2CCCN2C(=O)[C@H](CCc2cc(F)c(C(F)(F)F)c(F)c2)NC(=O)CN(C)C(=O)[C@@H]1Cc1ccc(C(F)(F)F)cc1 [PP0778] ([NMeL]I[Aze][Sar][NPrPhe(4-CF3)][Sar][hPhe(3,5-F2-4-CF3)]P[αMeF][NMeGly(cPent)][NMeD]-Morpholide; lactam N-11) |  |  |  |  | B (a compound having 3 or more and less than 10 is denoted as B) | B (a compound having 3 or more and less than 10 is denoted as B) |
